Laboratory results published in patent publication US9365576B2, “Pyrrolopyrrolidinone compounds” (Novartis AG, priority 2012, dated 2016).

Legend:
Assay type in all cases: binding
[1] = biological target: T1, human MDM2 protein (amino acids 2-188) (Homo sapiens (Human), UniProt Q00987); assay: TR-FRET assay, p53-MDM2 Assay 1; settings: 1.25 nM MDM2-biotinylated, 10 nM Cy5-p53 peptide
Method: (§1) The inhibition of p53-MDM2 and p53-MDM4 interactions is measured by time resolved fluorescence energy transfer (TR-FRET). Fluorescence energy transfer (or Foerster resonance energy transfer) describes an energy transfer between donor and acceptor fluorescent molecules. For this assay, human MDM2 protein (amino acids 2-188) and human MDM4 protein (amino acids 2-185), tagged with a C-terminal biotin moiety, are used in combination with a Europium labeled streptavidin (Perkin Elmer, Inc., Waltham, Mass., USA) serving as the donor fluorophore. The p53 derived, Cy5 labeled peptide Cy5-TFSDLWKLL (p53 aa18-26) is the energy acceptor. Upon excitation of the donor molecule at 340 nm, binding interaction between MDM2 or MDM4 and the p53 peptide induces energy transfer and enhanced response at the acceptor emission wavelength at 665 nm. Disruption of the formation of the p53-MDM2 or p53-MDM4 complex due to an inhibitor molecule binding to the p53 binding site of MDM2 or MDM4 results in increased donor emission at 620 nm. The ratiometric FRET assay readout is calculated from the raw data of the two distinct fluorescence signals measured in time resolved mode (fluorescence 665 nm/fluorescence 620 nm×1000).
(§2) After addition of 1.25 nM MDM2-biotinylated or 2.5 nM MDM4-biotinylated (internal preparations), and 0.625 nM Europium labeled streptavidin (Perkin Elmer), the solution is pre-incubated for 15 minutes at room temperature, then 10 nM Cy5-p53 peptide (internal preparation) is added before an incubation at room temperature for 15 minutes prior to reading the plate. For measurement of samples, a Victor II microplate reader (Perkin Elmer) is used with the following settings: Excitation 340 nm, Emission Donor 620 nm and Emission Acceptor 665 nm. IC50 values are calculated by curve fitting using XLfit. If not specified, reagents are purchased from Sigma-Aldrich Chemie GmBH, Buchs, Switzerland.
(§3) This assay was used to evaluate compounds displaying inhibition of p53-MDM2 interaction and p53-MDM4 interaction at IC50s of 0.005 to 50 μM (p53-MDM2 Assay 1 and p53-MDM4 Assay 1, respectively). For selected compounds displaying IC50s between […] on MDM2, a slightly modified assay is used with the following adaptations: 0.1 nM MDM2, 0.1 nM Europium labeled streptavidin and Tecan genios Pro is used as a microplate reader for the fluorescence measurements (p53-MDM2 Assay 2).

[2] = biological target: human MDM4 protein (amino acids 2-185) (Homo sapiens (Human), UniProt O15151); assay: TR-FRET assay, p53-MDM4 Assay 1; settings: 2.5 nM MDM4-biotinylated, 10 nM Cy5-p53 peptide
Method: as §1, §2, §3

[3] = biological target: T1, human MDM2 protein (amino acids 2-188); assay: TR-FRET assay, p53-MDM2 Assay 2 (modified); settings: TR-FRET; 0.1 nM MDM2, 0.1 nM Europium labeled streptavidin, Tecan genios Pro reader; read-out: IC50 p53-MDM2 Assay 2
Procedure, shortened: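 Biotinylated human MDM2 (aa 2–188, 1.25 nM) was preincubated 15 min at room temperature with 0.625 nM Eu-streptavidin, then 10 nM Cy5-p53 peptide (aa 18–26) added for 15 min. TR-FRET ratio 665/620 nm (excitation 340 nm) was read; IC50 came from curve fitting.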

T1 sequence (Q00987 2-188): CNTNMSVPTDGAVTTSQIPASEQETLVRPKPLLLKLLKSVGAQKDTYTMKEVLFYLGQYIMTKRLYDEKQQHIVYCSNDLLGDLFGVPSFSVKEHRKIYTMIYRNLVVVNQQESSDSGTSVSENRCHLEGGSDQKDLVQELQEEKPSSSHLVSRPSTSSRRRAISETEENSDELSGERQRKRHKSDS
Sequence of human MDM4 protein (amino acids 2-185) (O15151 2-185): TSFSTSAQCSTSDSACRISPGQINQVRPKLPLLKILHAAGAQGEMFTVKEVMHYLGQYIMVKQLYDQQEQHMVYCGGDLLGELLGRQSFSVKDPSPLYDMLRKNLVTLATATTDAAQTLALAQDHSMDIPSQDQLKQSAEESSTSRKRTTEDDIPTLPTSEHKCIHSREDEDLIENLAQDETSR

| IC50 [1] [nM] | IC50 [2] [µM] | IC50 [3] [nM] | SMILES |
| --- | --- | --- | --- |
| 20.7 | 4.71 | 30.1 | COc1ncc(-c2cc3c(n2C(C)C)C(c2ccc(Cl)cc2C)N([C@H]2CC[C@H](O)CC2)C3=O)c(OC)n1 (stereo partly drawn) [Example 103, 6-(4-Chloro-2-methyl-phenyl)-2-(2,4-dimethoxy-pyrimidin-5-yl)-5-(trans-4-hydroxy-cyclohexyl)-1-isopropyl-5,6-dihydro-1H-pyrrolo[3,4-b]pyrrol-4-one] |
| 12.7 | 2.38 | 13.6 | CNC(=O)c1ccc(OC)c(-c2cc3c(n2C(C)C)C(c2ccc(Cl)cc2C)N([C@H]2CC[C@H](O)CC2)C3=O)c1 (stereo partly drawn) [Example 102, 3-[6-(4-Chloro-2-methyl-phenyl)-5-(trans-4-hydroxy-cyclohexyl)-1-isopropyl-4-oxo-1,4,5,6-tetrahydro-pyrrolo[3,4-b]pyrrol-2-yl]-4-methoxy-N-methyl-benzamide] |
| 12.3 | 8.79 | 4.91 | COc1ccc(C(=O)O)cc1-c1cc2c(n1C(C)C)C(c1ccc(Cl)cc1)N([C@H]1CC[C@H](O)CC1)C2=O (stereo partly drawn) [Example 65, 3-[6-(4-Chloro-phenyl)-5-(trans-4-hydroxy-cyclohexyl)-1-isopropyl-4-oxo-1,4,5,6-tetrahydro-pyrrolo[3,4-b]pyrrol-2-yl]-4-methoxy-benzoic acid] |
| 12.6 | 7.86 | 14.2 | COc1nc(N)ncc1-c1cc2c(n1C(C)C)C(c1ccc(Cl)cc1)N([C@H]1CC[C@H](O)CC1)C2=O (stereo partly drawn) [Example 68, 2-(2-Amino-4-methoxy-pyrimidin-5-yl)-6-(4-chloro-phenyl)-5-(trans-4-hydroxy-cyclohexyl)-1-isopropyl-5,6-dihydro-1H-pyrrolo[3,4-b]pyrrol-4-one] |

Second part, the compound before the results:

| SMILES | IC50 [1] [nM] | IC50 [2] [µM] | IC50 [3] [nM] |
| --- | --- | --- | --- |
| COc1ccc(C(=O)NOCCO)cc1-c1cc2c(n1C(C)C)C(c1ccc(Cl)cc1)N(c1cc(Cl)ccc1C)C2=O (stereo not drawn) [Example 37, 3-[5-(5-Chloro-2-methyl-phenyl)-6-(4-chloro-phenyl)-1-isopropyl-4-oxo-1,4,5,6-tetrahydro-pyrrolo[3,4-b]pyrrol-2-yl]-N-(2-hydroxy-ethoxy)-4-methoxy-benzamide] | 1.1 | 0.327 | 0.125 |
| COc1nc(N)ncc1-c1cc2c(n1C(C)C)C(c1ccc(Cl)cc1)N(C1CCOCC1)C2=O (stereo not drawn) [Example 78, 2-(2-Amino-4-methoxy-pyrimidin-5-yl)-6-(4-chloro-phenyl)-1-isopropyl-5-(tetrahydro-pyran-4-yl)-5,6-dihydro-1H-pyrrolo[3,4-b]pyrrol-4-one] | 8.5 | 14 | 5.08 |
| COc1ncc(-c2cc3c(n2C(C)C)[C@H](c2ccc(Cl)cc2)N(c2cc(Cl)c(=O)n(C)c2)C3=O)c(OC)n1 [Example 121, (S)-5-(5-Chloro-1-methyl-6-oxo-1,6-dihydro-pyridin-3-yl)-6-(4-chloro-phenyl)-2-(2,4-dimethoxy-pyrimidin-5-yl)-1-isopropyl-5,6-dihydro-1H-pyrrolo[3,4-b]pyrrol-4-one] | 0.6 | 1.06 | 0.087 |
| CNC(=O)c1ccc(OC)c(-c2cc3c(n2C(C)C)C(c2ccc(Cl)cc2)N(c2cc(Cl)ccc2C)C3=O)c1 (stereo not drawn) [Example 10, 3-[5-(5-Chloro-2-methyl-phenyl)-6-(4-chloro-phenyl)-1-isopropyl-4-oxo-1,4,5,6-tetrahydro-pyrrolo[3,4-b]pyrrol-2-yl]-4-methoxy-N-methyl-benzamide] | 0.9 | 0.478 | 0.116 |
| CNC(=O)N1CCC(N2C(=O)c3cc(-c4cnc(OC)nc4OC)n(C(C)C)c3C2c2ccc(Cl)cc2)CC1 (stereo not drawn) [Example 107, 4-[6-(4-Chloro-phenyl)-2-(2,4-dimethoxy-pyrimidin-5-yl)-1-isopropyl-4-oxo-4,6-dihydro-1H-pyrrolo[3,4-b]pyrrol-5-yl]-piperidine-1-carboxylic acid methylamide] | 3 | 3.64 | 2.69 |
| COc1ncc(-c2cc3c(n2C(C)C)C(c2ccc(Cl)cc2C)N(C2CCOCC2)C3=O)c(OC)n1 (stereo not drawn) [Example 105, 6-(4-Chloro-2-methyl-phenyl)-2-(2,4-dimethoxy-pyrimidin-5-yl)-1-isopropyl-5-(tetrahydro-pyran-4-yl)-5,6-dihydro-1H-pyrrolo[3,4-b]pyrrol-4-one] | 10.2 | 6.29 | 14.3 |
| COc1ccccc1-c1cc2c(n1C(C)C)C(c1ccc(Cl)cc1)N(c1cc(Cl)ccc1C)C2=O (stereo not drawn) [Example 9, 5-(5-Chloro-2-methyl-phenyl)-6-(4-chloro-phenyl)-1-isopropyl-2-(2-methoxy-phenyl)-5,6-dihydro-1H-pyrrolo[3,4-b]pyrrol-4-one] | 0.6 | 4.03 | 0.298 |
| COc1nc(N(C)C)ncc1-c1cc2c(n1C(C)C)[C@H](c1ccc(C#N)cc1)N(c1cc(Cl)c[nH]c1=O)C2=O [Example 167, 4-[(S)-5-(5-Chloro-2-oxo-1,2-dihydro-pyridin-3-yl)-2-(2-dimethylamino-4-methoxy-pyrimidin-5-yl)-1-isopropyl-4-oxo-1,4,5,6-tetrahydro-pyrrolo[3,4-b]pyrrol-6-yl]-benzonitrile] | 0.8 | 0.717 | 0.161 |
